The values below are quoted from earlier work in patent publication US20250230139A1, “Novel Process and Intermediate for the Preparation of Apalutamide” (BDR Lifesciences Private Limited, priority 2022, published 2025).

The conditions of series [1]: powder.
The conditions of series [2]: strong base (pH>11).
For series [3] the following is noted: acidic carboxamide moiety.
The subject of the next series is prostate cancer. The following applies: mouse xenograft models of prostate cancer.

In the case of `CNC(=O)c1ccc(N2C(=S)N(c3cnc(C#N)c(C(F)(F)F)c3)C(=O)C23CCC3)cc1F` [Apalutamide, 4-[7-[6-cyano-5-(trifluoromethyl)pyridin-3-yl]-8-oxo-6-thioxo-5,7-diazaspiro[3.4]octan-5-yl]-2-fluoro-N-methylbenzamide], in series [1], the hygroscopicity entry is “non-hygroscopic”. For the same compound, where the note is “aqueous media over a wide range of pH values”, the “solubility in aqueous media” value is on record as “practically insoluble”. For the same compound, the “solubility in organic solvents” value (organic solvents) is on record as “practically insoluble to very soluble”. Also, the “stability to strong base” value in series [2] is on record as “unstable”. The “dissociation constant pKa” value in series [3] is 9.7. In the series on prostate cancer, the apoptosis entry is reported as “increased apoptosis”, the tumor cell proliferation result was “decreased tumor cell proliferation” and the tumor volume result is “decreased tumor volume”.
